Laboratory results published in ChEMBL document CHEMBL1201862, “PubChem BioAssay data set” (2004).
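All cell lines were grown in 96-well plates and treated with compound for 48 hours. GI50 marks 50% less growth.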 Calls of active or inactive are those of the source. Rule as the data show it: active = GI50 up to about 1.1 µM and inactive = higher.

Columns and labels:
Test in all cases: NCI tumour cell line growth inhibition, 48 h
RPMI-8226 = tested on: RPMI-8226
SK-MEL-2 = tested on: SK-MEL-2
OVCAR-4 = tested on: OVCAR-4
PC-3 = tested on: PC-3
NCI-H522 = tested on: NCI-H522
CCRF-CEM = tested on: CCRF-CEM
A549 = tested on: A549
NCI/ADR-RES = tested on: NCI/ADR-RES
HCC 2998 = tested on: HCC 2998
SK-MEL-28 = tested on: SK-MEL-28
KM12 = tested on: KM12
OVCAR-8 = tested on: OVCAR-8
K562 = tested on: K562
SNB-75 = tested on: SNB-75
EKVX = tested on: EKVX
MDA-N = tested on: MDA-N
OVCAR-5 = tested on: OVCAR-5
SF-268 = tested on: SF-268
MCF7 = tested on: MCF7
DU-145 = tested on: DU-145

SMILES	GI50 (RPMI-8226)	GI50 (SK-MEL-2)	GI50 (OVCAR-4)	GI50 (PC-3)	GI50 (NCI-H522)	GI50 (CCRF-CEM)	GI50 (A549)	GI50 (NCI/ADR-RES)	GI50 (HCC 2998)	GI50 (SK-MEL-28)	GI50 (KM12)	GI50 (OVCAR-8)	GI50 (K562)	GI50 (SNB-75)	GI50 (EKVX)	GI50 (MDA-N)	GI50 (OVCAR-5)	GI50 (SF-268)	GI50 (MCF7)	GI50 (DU-145)
CCC(=O)N(c1ccccc1)C(C)CN1CCC(O)(c2cccc(C(F)(F)F)c2)CC1 (stereo not drawn)	18.7 µM (inactive)	20.9 µM (inactive)	33.3 µM (inactive)	19.3 µM (inactive)	20.2 µM (inactive)	19.9 µM (inactive)	39 µM (inactive)	19.5 µM (inactive)	26.5 µM (inactive)	23.1 µM (inactive)	35.2 µM (inactive)	38.1 µM (inactive)	20.9 µM (inactive)	32.8 µM (inactive)	31.8 µM (inactive)	19.5 µM (inactive)	22.8 µM (inactive)	–	–	–
CCN(CCCl)CCNc1c2ccccc2nc2ccc(OC)cc12	0.0977 µM (active)	1.03 µM (active)	0.794 µM (active)	–	0.33 µM (active)	0.104 µM (active)	0.557 µM (active)	1.35 µM (inactive)	0.847 µM (active)	1.52 µM (inactive)	0.603 µM (active)	0.263 µM (active)	0.213 µM (active)	0.966 µM (active)	1.27 µM (inactive)	–	1.36 µM (inactive)	0.454 µM (active)	0.378 µM (active)	–
Cc1ccc(S(=O)(=O)NC(=O)Nc2ccc(C(=O)O)c(O)c2)cc1	> 100 µM (inactive)	> 100 µM (inactive)	> 100 µM (inactive)	> 100 µM (inactive)	–	> 100 µM (inactive)	> 100 µM (inactive)	> 100 µM (inactive)	> 100 µM (inactive)	–	> 100 µM (inactive)	> 100 µM (inactive)	> 100 µM (inactive)	> 100 µM (inactive)	> 100 µM (inactive)	–	> 100 µM (inactive)	> 100 µM (inactive)	> 100 µM (inactive)	> 100 µM (inactive)
COc1cc(/C=C(\OC(C)=O)c2ccc3c(c2)OCO3)cc(OC)c1OC	20.8 µM (inactive)	22.8 µM (inactive)	18.3 µM (inactive)	–	13.5 µM (inactive)	25.4 µM (inactive)	26.7 µM (inactive)	–	> 10 µM (inactive)	17.7 µM (inactive)	19 µM (inactive)	16.3 µM (inactive)	25.5 µM (inactive)	20.6 µM (inactive)	15.9 µM (inactive)	–	24.5 µM (inactive)	20 µM (inactive)	–	–
N#CC(CC(=O)O)=C(c1ccccc1)c1ccccc1	> 100 µM (inactive)	> 100 µM (inactive)	> 100 µM (inactive)	> 100 µM (inactive)	> 100 µM (inactive)	–	> 100 µM (inactive)	> 100 µM (inactive)	> 100 µM (inactive)	> 100 µM (inactive)	> 100 µM (inactive)	> 100 µM (inactive)	> 100 µM (inactive)	> 100 µM (inactive)	> 100 µM (inactive)	> 100 µM (inactive)	> 100 µM (inactive)	> 100 µM (inactive)	> 100 µM (inactive)	–
Cc1cc(C)nc(NC(=S)Nc2ccc([N+](=O)[O-])cc2)c1	> 100 µM (inactive)	> 100 µM (inactive)	> 100 µM (inactive)	> 100 µM (inactive)	–	> 100 µM (inactive)	–	> 100 µM (inactive)	> 100 µM (inactive)	> 100 µM (inactive)	> 100 µM (inactive)	> 100 µM (inactive)	45.2 µM (inactive)	> 100 µM (inactive)	> 100 µM (inactive)	–	–	> 100 µM (inactive)	> 100 µM (inactive)	> 100 µM (inactive)
C/C=C1\C=C(OC)CN(CCc2c[nH]c3ccccc23)C1	73.8 µM (inactive)	43.3 µM (inactive)	39.5 µM (inactive)	–	46 µM (inactive)	> 100 µM (inactive)	80.7 µM (inactive)	–	18 µM (inactive)	–	52.2 µM (inactive)	> 100 µM (inactive)	72.3 µM (inactive)	38.9 µM (inactive)	60.7 µM (inactive)	–	–	19 µM (inactive)	–	–
O=C1C=CC2OC(c3ccccc3)C(O)C2O1 (stereo not drawn)	1.39 µM (inactive)	2.75 µM (inactive)	7.87 µM (inactive)	–	1.35 µM (inactive)	1.15 µM (inactive)	5.74 µM (inactive)	2.94 µM (inactive)	2.47 µM (inactive)	4.49 µM (inactive)	6.76 µM (inactive)	3.62 µM (inactive)	3.37 µM (inactive)	10.4 µM (inactive)	4.91 µM (inactive)	–	9.38 µM (inactive)	5.53 µM (inactive)	6.07 µM (inactive)	–
CC(C)c1cc(C(C)C)c(Cl)c(Cl)c1O.CC(C)c1cc(Cl)c(O)c(C(C)C)c1Cl	20.4 µM (inactive)	18.5 µM (inactive)	–	19.5 µM (inactive)	14 µM (inactive)	37.1 µM (inactive)	40.2 µM (inactive)	32.8 µM (inactive)	28.8 µM (inactive)	24.1 µM (inactive)	24.4 µM (inactive)	26.7 µM (inactive)	16.9 µM (inactive)	–	20.5 µM (inactive)	–	48.3 µM (inactive)	18.8 µM (inactive)	23.7 µM (inactive)	35 µM (inactive)
COc1ccc2nc3c(c(N)c2c1)C1CCC3C1(C)C (stereo not drawn)	23.5 µM (inactive)	25.5 µM (inactive)	47.6 µM (inactive)	24.3 µM (inactive)	34.7 µM (inactive)	14.1 µM (inactive)	70.5 µM (inactive)	> 100 µM (inactive)	17.5 µM (inactive)	30.8 µM (inactive)	42.9 µM (inactive)	71.1 µM (inactive)	41.7 µM (inactive)	29.6 µM (inactive)	30.6 µM (inactive)	–	41 µM (inactive)	72.1 µM (inactive)	24 µM (inactive)	> 100 µM (inactive)
CCN(CC)C(=O)C(C)n1cc(C)c(=O)[nH]c1=O (stereo not drawn)	> 100 µM (inactive)	> 100 µM (inactive)	> 100 µM (inactive)	–	> 100 µM (inactive)	> 100 µM (inactive)	> 100 µM (inactive)	–	> 100 µM (inactive)	> 100 µM (inactive)	> 100 µM (inactive)	> 100 µM (inactive)	> 100 µM (inactive)	15.1 µM (inactive)	> 100 µM (inactive)	–	> 100 µM (inactive)	> 100 µM (inactive)	–	–
CSCSCC(CO)NC(=O)/C=C\c1c(C)[nH]c(=O)[nH]c1=O (stereo not drawn)	51.5 µM (inactive)	14.2 µM (inactive)	1.23 µM (inactive)	–	0.959 µM (active)	2.27 µM (inactive)	77.1 µM (inactive)	19 µM (inactive)	5.57 µM (inactive)	28.6 µM (inactive)	12.7 µM (inactive)	10 µM (inactive)	5.2 µM (inactive)	16.3 µM (inactive)	16.1 µM (inactive)	–	57.3 µM (inactive)	7.64 µM (inactive)	2.19 µM (inactive)	–
COc1ccc2c(c1)C/C(=C\c1ccc(O)c(OC)c1)C2=O	> 100 µM (inactive)	–	> 100 µM (inactive)	> 100 µM (inactive)	–	–	> 100 µM (inactive)	> 100 µM (inactive)	> 100 µM (inactive)	> 100 µM (inactive)	–	> 100 µM (inactive)	> 100 µM (inactive)	46 µM (inactive)	> 100 µM (inactive)	–	> 100 µM (inactive)	> 100 µM (inactive)	> 100 µM (inactive)	–
Cc1ccc(C(=O)N2CCCCC2)cc1/N=N/N(C)C	> 100 µM (inactive)	> 100 µM (inactive)	> 100 µM (inactive)	–	> 100 µM (inactive)	> 100 µM (inactive)	> 100 µM (inactive)	–	> 100 µM (inactive)	> 100 µM (inactive)	> 100 µM (inactive)	> 100 µM (inactive)	> 100 µM (inactive)	> 100 µM (inactive)	> 100 µM (inactive)	–	> 100 µM (inactive)	> 100 µM (inactive)	–	–
Oc1ccc2ccccc2c1/N=N/c1ccc(/N=N/c2ccccc2)cc1	> 100 µM (inactive)	> 100 µM (inactive)	> 100 µM (inactive)	> 100 µM (inactive)	86.3 µM (inactive)	> 100 µM (inactive)	74.5 µM (inactive)	> 100 µM (inactive)	–	> 100 µM (inactive)	84.9 µM (inactive)	> 100 µM (inactive)	> 100 µM (inactive)	70.1 µM (inactive)	> 100 µM (inactive)	50 µM (inactive)	> 100 µM (inactive)	> 100 µM (inactive)	–	> 100 µM (inactive)
COC(=O)CCC(=O)Nc1cc(C)ccc1C	> 100 µM (inactive)	> 100 µM (inactive)	> 100 µM (inactive)	–	> 100 µM (inactive)	> 100 µM (inactive)	> 100 µM (inactive)	–	> 100 µM (inactive)	> 100 µM (inactive)	> 100 µM (inactive)	> 100 µM (inactive)	> 100 µM (inactive)	> 100 µM (inactive)	> 100 µM (inactive)	–	–	–	–	–
CN1CCCNCCN(CCc2ccccn2)CCCN(C)CC1	> 52.8 µM (inactive)	> 100 µM (inactive)	> 58.5 µM (inactive)	–	> 100 µM (inactive)	> 41.9 µM (inactive)	> 100 µM (inactive)	–	> 100 µM (inactive)	> 100 µM (inactive)	> 67.6 µM (inactive)	> 100 µM (inactive)	> 44.9 µM (inactive)	> 100 µM (inactive)	> 91.4 µM (inactive)	–	> 100 µM (inactive)	> 100 µM (inactive)	–	–
